# Experiments:
# [1] = system: transgenic Arabidopsis plants overexpressing HPPD (Seq ID: 53); experiment: Arabidopsis germination/growth inhibition assay in 48-well plates; format: in vivo, Arabidopsis thaliana; details: plant growth IC50 of transgenic divided by wildtype; HPPD (Seq ID: 53) overexpression
# Experimental: (§1) Tolerance to N-heterocyclyl-arylcarboxamides can also be assessed in Arabidopsis. In this case transgenic Arabidopsis thaliana plants are assayed for improved tolerance to N-heterocyclyl-arylcarboxamides in 48-well plates. Seeds are surface sterilized by stirring for 5 min in ethanol+water (70+30 by volume), rinsing one time with ethanol+water (70+30 by volume) and two times with a sterile, deionized water. The seeds are resuspended in 0.1% agar dissolved in water (w/v). Four to five seeds per well are plated on solid nutrient medium consisting of half-strength Murashige Skoog nutrient solution, pH 5.8 (Murashige and Skoog (1962) Physiologia Plantarum 15: 473-497). Compounds are dissolved in dimethylsulfoxid (DMSO) and added to the medium prior solidification (final DMSO concentration 0.1%). Multi well plates are incubated in a growth chamber at 22° C., 75% relative humidity and 110 μmol Phot*m-2*s-1 with 14:10 h light: dark photoperiod. Seven to ten days after seeding growth inhibition is evaluated by comparison to wild type plants. Tolerance factor is calculated by dividing the plant growth IC50 value of transgenic plants containing a HPPD and/or HST sequence by that of wildtype plants.
# [2] = system: Arabidopsis wild-type control plants; experiment: as above; format: in vivo, Arabidopsis thaliana; details: plant growth IC50 relative to wildtype
# Experimental: as §1
# [3] = target: T1, Arabidopsis HPPD (SEQ ID NO:53) (Arabidopsis thaliana, UniProt P93836); experiment: HPPD activity assay (HGA by HPLC), wildtype enzyme; format: biochemical; details: Arabidopsis enzyme
# T1 construct: His6 (N); made in house; host or cells: E. coli BL21 (DE3)
# T1 sequence (P93836 1-445): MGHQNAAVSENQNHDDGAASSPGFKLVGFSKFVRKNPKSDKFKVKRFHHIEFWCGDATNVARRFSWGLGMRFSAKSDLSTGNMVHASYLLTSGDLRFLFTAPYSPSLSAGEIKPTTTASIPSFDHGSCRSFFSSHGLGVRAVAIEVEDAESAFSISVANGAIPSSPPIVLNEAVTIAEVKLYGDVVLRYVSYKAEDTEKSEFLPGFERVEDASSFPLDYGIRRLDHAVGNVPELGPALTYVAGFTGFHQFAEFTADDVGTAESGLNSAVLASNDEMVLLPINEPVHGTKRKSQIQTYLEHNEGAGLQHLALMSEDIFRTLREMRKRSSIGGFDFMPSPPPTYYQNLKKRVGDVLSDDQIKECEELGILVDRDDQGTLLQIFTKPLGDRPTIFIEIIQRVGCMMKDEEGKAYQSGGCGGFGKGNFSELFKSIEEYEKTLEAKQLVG
# Experimental: (§2) HPPD produces homogentisic acid and CO2 from 4-hydroxyphenylpyruvate (4-HPP) and O2. The activity assay for HPPD is based on the analysis of homogentisic acid by reversed phase HPLC.
# (§3) The assay mixture can contain 150 mM potassium phosphate buffer pH 7.0, 50 mM L-ascorbic acid, 100 μM Catalase (Sigma-Aldrich), 1 μM FeSO4 and 0.2 units of purified HPPD enzyme in a total volume of 505 μl. 1 unit is defined as the amount of enzyme that is required to produce 1 nmol of HGA per minute at 20° C.
# (§4) After a preincubation of 30 min the reaction is started by adding 4-HPP to a final concentration of 0.05 mM. The reaction is allowed to proceed for 45 min at room temperature. The reaction is stopped by the addition of 50 μl of 4.5 M phosphoric acid. The sample is filtered using a […] pore size PVDF filtration device.
# (§5) 5 μl of the cleared sample is analyzed on an UPLC HSS T3 column (particle size 1.8 μm, dimensions 2.1×50 mm; Waters) by isocratic elution using 90% 20 mM NaH2PO4 pH 2.2, 10% methanol (v/v).
# (§6) HGA is detected electrochemically at 750 mV (mode: DC; polarity: positive) and quantified by integrating peak areas (Empower software; Waters).
# (§7) Inhibitors are dissolved in DMSO (dimethylsulfoxide) to a concentration of 0.5 mM. From this stock solution serial five-fold dilutions are prepared in DMSO, which are used in the assay. The respective inhibitor solution accounts for 1% of the assay volume. […] Activities are normalized by setting the uninhibited enzyme activity to 100%. IC50 values are calculated using non-linear regression.
# (§8) Using methods which are described in the above examples or well known in the art, purified, recombinant wildtype HPPD enzymes are characterized with respect to their kinetic properties and sensitivity towards HPPD inhibiting herbicides. Apparent michaelis constants (Km) and maximal reaction velocities (Vmax) are calculated by non-linear regression with the software GraphPad Prism 5 (GraphPad Software, La Jolla, USA) using a substrate inhibition model. […] Weighted means (by standard error) of Km and IC50 values are calculated from at least three independent experiments.
# (§9) Field performance of the HPPD enzyme, which is used as a herbicide tolerance trait may depend not only on its lack of sensitivity towards HPPD inhibiting herbicides but also on its activity. To assess the potential performance of a herbicide tolerance trait a tolerance index (TI) is calculated using the following formula: […]
# (§10) Easy comparison and ranking of each trait is enabled by normalizing tolerance indexes on Arabidopsis wild-type HPPD.
# [4] = target: T2, Hordeum HPPD (SEQ ID NO:2) (Hordeum vulgare, UniProt O48604, A164G/R146V/R147D/R148G); experiment: HPPD activity assay (HGA by HPLC), wildtype enzyme; format: biochemical; details: Hordeum enzyme
# T2 construct: subcloned into a modified pET24D (Novagen) expression vector resulting in N-terminally His-tagged expression constructs; His tag (N); made in house; host or cells: E. coli BL21 (DE3)
# Experimental: as §2, §3, §4, §5, §6, §7, §8, §9, §10
# [5] = apparent michaelis constant, read-out: Km [μM] (4-HPP)
# T2 sequence (O48604 whole entry R146V/R147D/R148G/A164G): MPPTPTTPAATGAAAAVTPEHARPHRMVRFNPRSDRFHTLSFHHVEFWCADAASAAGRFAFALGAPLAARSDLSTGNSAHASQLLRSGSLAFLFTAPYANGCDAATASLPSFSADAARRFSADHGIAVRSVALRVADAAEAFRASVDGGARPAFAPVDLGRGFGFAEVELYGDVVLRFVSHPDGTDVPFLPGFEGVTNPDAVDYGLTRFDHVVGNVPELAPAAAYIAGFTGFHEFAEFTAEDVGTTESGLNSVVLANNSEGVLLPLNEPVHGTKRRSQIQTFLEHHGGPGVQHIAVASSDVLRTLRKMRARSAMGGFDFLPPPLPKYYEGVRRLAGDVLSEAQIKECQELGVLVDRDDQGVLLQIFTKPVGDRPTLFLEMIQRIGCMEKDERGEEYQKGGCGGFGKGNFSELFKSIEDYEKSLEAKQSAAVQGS
Structure (SMILES),Tolerance factor towards Inhibitor 2 [1],Tolerance factor towards Inhibitor 2 [2],"Km [3, 5]",kcat ([3]; turnover number),"Km [4, 5]",kcat ([4]; turnover number)
"COc1nonc1NC(=O)c1ccc(S(C)(=O)=O)c(S(C)(=O)=O)c1C [Inhibitor 2, N-(4-methoxy-1,2,5-oxadiazol-3-yl)-2-methyl-3,4-bis(methylsulfonyl)benzamide]",12,1,–,–,–,–
"O=C(O)C(=O)Cc1ccc(O)cc1 [Inhibitor 4-HPP, 4-hydroxyphenylpyruvate, reference compound]",–,–,13 µM,12.9 s⁻¹,26 µM,11.5 s⁻¹

# From patent US10829778B2, “Plants having increased tolerance to herbicides” (BASF SE, priority 2013, dated 2020)
